Data published in ChEMBL document CHEMBL5038649, “Chemical Space Expansion of Flavonoids: Induction of Mitotic Inhibition by Replacing Ring B with a 10π-Electron System, Benzo[b]thiophene” (J Nat Prod, 2022).
Calls of active or inactive are those of the source. The rule behind the calls is not given here.

Tests used:
[1] = Antiproliferative activity against human KB-VIN cells assessed as reduction in cell viability after 72 hrs by SRB assay; assay type: functional, cell-based; conditions: KBVIN
KB = assay: Antiproliferative activity against human KB cells assessed as reduction in cell viability after 72 hrs by SRB assay; assay type: functional, cell-based
MDA-MB-231 [2] = assay: Cell cycle arrest in human MDA-MB-231 cells assessed as accumulation at G2/M phase incubated for 24 hrs by propidium iodide staining based flow cytometric analysis; assay type: functional
MDA-MB-231 [3] = assay: Antiproliferative activity against human MDA-MB-231 cells assessed as reduction in cell viability after 72 hrs by SRB assay; assay type: functional, cell-based; conditions: MDA-MB-231, 72 h
Tubulin (Homo sapiens) = Tubulin (Homo sapiens) (UniProt P68371+Q9H4B7+P0DPH7+P68366+Q13509+Q71U36+P04350+Q3ZCM7+P07437+P68363+Q9BQE3+Q6PEY2+Q13885+Q9BVA1+Q9BUF5); assay: Induction of microtubule depolymerization in human MDA-MB-231 cells assessed as spindle formation incubated for 24 hrs by immunofluorescence staining based confocal microscopic analysis; assay type: cell-based
MCF7 = assay: Antiproliferative activity against human MCF7 cells assessed as reduction in cell viability after 72 hrs by SRB assay; assay type: functional, cell-based; conditions: MCF7, 72 h
A549 = assay: Antiproliferative activity against human A549 cells assessed as reduction in cell viability after 72 hrs by SRB assay; assay type: functional, cell-based; conditions: A549, 72 h

Row | IC50 (KB) [nM] | IC50 (MDA-MB-231 [3]) [nM] | Activity (Tubulin (Homo sapiens)) | IC50 (MCF7) [nM] | IC50 (A549) [nM] | Compound | IC50 [1] [nM] | Activity (MDA-MB-231 [2])
1 | 610 | 800 | inactive | 750 | 590 | COc1cc2c(c(OC)c1OC)O/C(=C\c1csc3ccccc13)C2=O | 480 | Dose-Dependent Effect
2 |  |  | Active |  |  | COc1ccc(/C=C\c2cc(OC)c(OC)c(OC)c2)cc1O |  | Dose-Dependent Effect
3 | 640 | 800 | Active | 890 | 580 | O=C(/C=C/c1csc2ccccc12)c1c(O)ccc2ccccc12 | 480 | Dose-Dependent Effect
4 | 820 | 820 | inactive | 740 | 640 | COc1cc2occ(-c3csc4ccccc34)c(=O)c2c(OC)c1OC | 510 | Dose-Dependent Effect
